Laboratory results published in patent US20140180549A1, “AUTOMATED MACHINE FOR SELECTIVE IN SITU MANIPULATION OF PLANTS” (The Arizona Board of Regents on Behalf of the University of …, priority 2011, published 2014).

Test system: Lettuce seedlings
Test: Comparison of automated (machine-vision spray) and hand plant thinning
Type: in vivo
Conditions: for Time (hand laborer with hand hoe to remove weeds and lettuce plants missed during thinning): after thinning operation; for Time (hand laborer with hand hoe to remove weeds and lettuce plants missed during thinning) / Plant Count (number of live plants per acre after thinning): letters = Duncan's groups (P = 0.05); for Plant Count (number of live plants per acre after thinning) / Plant Spacing (average of the measured distance to each live plant after thinning) / machine performance as compared to hand thinning: lettuce seedlings; for Plant Count (number of live plants per acre after thinning) / Plant Spacing (average of the measured distance to each live plant after thinning): product sprayed by automated thinning machine; for Plant Spacing (average of the measured distance to each live plant after thinning): letters = Duncan's new multiple range test groups (P = 0.05); for machine performance as compared to hand thinning: liquid product sprayed by automated thinning machine
Text: The machine vision system used in this example is as described in Example 1, except the spray nozzles were enclosed within a “hooded” box assembly to protect sprayed treatment from wind effects.
Lettuce seedlings were thinned either using the machine vision system with the indicated treatments. The far left column lists the seven treatments tested, including hand thinning (control) and six treatments used by the automated thinning machine. Of these six, the automated thinning machine was evaluated spraying five different liquid products (two acids, two fertilizers, and one herbicide) known to kill plants and one mechanical method (knife blade—“hula hoe” design). The second column is the cost of the material sprayed for the flow rates and travel speeds used. The third column is the average of the measured distance to each live plant after thinning. The fourth column is the number of live plants per acre after thinning. The fifth column is the time required by a hand laborer to walk through the field with a hand hoe and remove weeds in the row between crop plants and any lettuce plants missed during the thinning operation.

Row | SMILES | Time (hand laborer with hand hoe to remove weeds and lettuce plants missed during thinning) | Plant Count (number of live plants per acre after thinning) | Plant Spacing (average of the measured distance to each live plant after thinning) | machine performance as compared to hand thinning
1 | CC(=O)O [Acetic Acid (20%), Acetic Acid] | 3.0cd hr/acre | 30,181b per/acre | 8.9b inch | –
2 | C[n+]1ccc(-c2cc[n+](C)cc2)cc1 [Paraquat, reference compound] | 2.8d hr/acre | 27,692b per/acre | 9.6ab inch | no difference
3 | O=S(=O)(O)O [Sulfuric Acid (10%), Sulfuric Acid] | 2.7d hr/acre | 26,758b per/acre | 10.2a inch | no difference
